Reference: patent publication EP4741439A1, “BLOCK COPOLYMER CONTAINING REPEATING UNIT OF POLY([R, S]BETA-HYDROXYBUTYRATE), NANOPARTICLES FORMED FROM SAID COPOLYMER, AND PRODUCTION AND USE OF THOSE” (University of Tsukuba, priority 2023, dated 2025)

Experiments:
[1] = system: Bovine aortic endothelial cells (BAEC); assay: Cytotoxicity, WST cell viability; format: cell-based; conditions: 24 hours, BHB content from 0 to 25.4 mM
Method: Bovine aortic endothelial cells (BAEC) (available from RIKEN (RIKEN, Tsukuba, Japan)) were pre-seeded on a 96 well (well) plate and incubated with either Nano^BHB or BHB at different concentrations with a BHB content of from 0 to 25.4 mM in a medium. After 24 hours, the medium was discarded, followed by addition of 100 µL of medium containing 10 µL of WST agent and incubation for 4 hours. In a final process, cell viability was measured based on a ratio of optical signals of a subject well and a water treatment group well at a wavelength of 450 nm in each well.

[2] = system: cisplatin-induced acute kidney injury (AKI); assay: Protective effect on acute kidney injury by subcutaneous injection; format: in vivo, C57BL/6J male mice; conditions: subcutaneous injection about 250 mg in terms of BHB/kg, 6 hours prior to cisplatin 20 mg/kg; 72 hours after challenge
Method: C57BL/6J male mice (8 weeks old) were divided into four groups for use in different treatments. Acute kidney injury was induced by intraperitoneal injection of cisplatin (20 mg/kg). A mouse was pretreated with subcutaneous injection of physiological saline (n = 11) or sodium β-hydroxybutyrate (at a dose in terms of BHB/kg of about 250 mg, n = 1) or Nano^BHB (at a dose in terms of BHB/kg of about 250 mg, n = 10) 6 hours prior to exposure to cisplatin. The healthy group (n = 8) was injected with physiological saline instead of cisplatin. 72 hours after the cisplatin challenge, the mouse was sacrificed, and blood plasma and kidney were collected. Renal function was assessed by measuring the levels of blood urea nitrogen (BUN), creatinine (CRE), aspartate transaminase (AST). […] In the figure, (A) represents a scheme of animal experiment, (B) is a graphical representation of data on blood urea nitrogen in plasma of an AKI mouse 3 days after injection of cisplatin, (C) is a graphical representation of data on creatinine, (D) is a graphical representation of data on aspartate transaminase, (E) is a presentation image of periodic acid Schiff (PAS) staining at 20 fold magnification of kidney tissue, and (F) is a graph summarizing data of the result of quantitative measurement of a damaged region of the kidney from a stained image. […]

CC(O)CC(=O)[O-].[Na+] (stereo not drawn) [sodium β-hydroxybutyrate]
survival rate and morphology of the BAEC cells [1]: do not affect | Effect against cisplatin-induced acute kidney injury (BUN, CRE, AST, PAS staining) [2]: no decrease in renal function is observed
